Test results taken from patent publication US9029337B2, “Modulation of factor 7 expression” (Isis Pharmaceuticals, Inc., priority 2007, dated 2015).
Strand notation (5' to 3'): a small letter for the sugar, then the base; units joined by * are phosphorothioate-linked, units joined directly phosphodiester-linked; [ ] holds rarer units or linkages, { } end groups; capitals alone tell only the bases. e = 2'-O-(2-methoxyethyl) (MOE); [5mC] = 5-methylcytosine; d = 2'-deoxy (DNA)

System: human Factor 7 mRNA
Test: Antisense inhibition of human Factor 7 with short (14-mer) oligonucleotides in HepB3 cells, electroporation 1,000 nM
Type: cell-based
Conditions: electroporation, 1,000 nM antisense oligonucleotide, approximately 24 hours, Factor 7 mRNA relative to untreated control cells
From the text: Short antisense oligonucleotides (shortmers) were designed to target a Factor 7 nucleic acid. The shortmers in Table 17 were designed as 2-10-2 MOE gapmers. The gapmers are 14 nucleotides in length, wherein the central gap segment is comprised of 10 2′-deoxynucleotides and is flanked on both sides (in the 5′ and 3′ directions) by wings comprising 2 nucleotides each. Each nucleotide in the 5′ wing segment and each nucleotide in the 3′ wing segment has a 2′-MOE modification. The internucleoside linkages throughout each gapmer are phosphorothioate (P═S) linkages. All cytidine residues throughout each gapmer are 5-methylcytidines.
Shortmers were evaluated for their ability to reduce human Factor 7 mRNA in HepB3 cells and compared with one 5-10-5 chimeric oligonucleotide from Table 16, ISIS 407939. HepB3 cells at a density of 20,000 cells per well in a 96-well plate were transfected using electroporation with 1,000 nM of antisense oligonucleotide. After a treatment period of approximately 24 hours, RNA was isolated from the cells and Factor 7 mRNA levels were measured by real-time RT-PCR, as described herein. Factor 7 mRNA levels were adjusted according to total RNA content as measured by RIBOGREEN®. Results are presented in Table 17 as percent inhibition of Factor 7 mRNA, relative to untreated control cells. ISIS 407939 is the first oligonucleotide in Table 17 to which the shortmers were compared, and is marked by an asterisk (*).

## 435699 (antisense eG*e[5mC]*d[5mC]*d[5mC]*d[5mC]*dA*dG*d[5mC]*dT*dG*dA*d[5mC]*eG*eA) [compound 435699]
  % Inhibition: 48%

## 435714 (antisense eA*e[5mC]*dT*d[5mC]*dG*dA*dT*dG*dT*dA*d[5mC]*dT*eG*eG) [compound 435714]
  % Inhibition: 3%

## 435715 (antisense e[5mC]*eA*dG*d[5mC]*d[5mC]*dA*d[5mC]*dT*d[5mC]*dG*dA*dT*eG*eT) [compound 435715]
  % Inhibition: 35%

## 435716 (antisense eT*eT*dT*dT*dG*d[5mC]*dA*dG*d[5mC]*d[5mC]*dA*d[5mC]*eT*e[5mC]) [compound 435716]
  % Inhibition: 22%

## 435717 (antisense eT*eG*dA*dG*d[5mC]*dT*dT*dT*dT*dG*d[5mC]*dA*eG*e[5mC]) [compound 435717]
  % Inhibition: 0%

## 435718 (antisense eG*e[5mC]*dT*d[5mC]*dG*d[5mC]*dA*dG*dG*dA*dG*dG*eA*e[5mC]) [compound 435718]
  % Inhibition: 26%

## 435719 (antisense e[5mC]*eA*dG*d[5mC]*d[5mC]*dT*dT*dG*dG*d[5mC]*dT*dT*eT*e[5mC]) [compound 435719]
  % Inhibition: 50%

## 435720 (antisense eA*eG*dG*d[5mC]*dT*d[5mC]*dA*dG*d[5mC]*dT*dG*dG*eG*e[5mC]) [compound 435720]
  % Inhibition: 16%

## 435721 (antisense eT*eA*dA*dG*dG*dA*dG*dG*d[5mC]*dT*d[5mC]*dA*eG*e[5mC]) [compound 435721]
  % Inhibition: 12%

## 435722 (antisense eT*eG*dG*dG*d[5mC]*dT*dT*dG*dG*d[5mC]*dT*dG*eA*eA) [compound 435722]
  % Inhibition: 50%

## 435723 (antisense eG*e[5mC]*d[5mC]*dA*dG*d[5mC]*dA*dG*dA*dT*d[5mC]*dA*e[5mC]*eG) [compound 435723]
  % Inhibition: 68%

## 435724 (antisense e[5mC]*eT*dG*dA*dG*dG*d[5mC]*d[5mC]*dA*dG*d[5mC]*dA*eG*eA) [compound 435724]
  % Inhibition: 52%

## 435725 (antisense eG*e[5mC]*dA*dG*d[5mC]*d[5mC]*dT*dG*dA*dG*dG*d[5mC]*e[5mC]*eA) [compound 435725]
  % Inhibition: 79%

## 435726 (antisense eG*e[5mC]*dA*dA*dT*dG*dA*dA*dG*dG*d[5mC]*dA*eG*eA) [compound 435726]
  % Inhibition: 26%

## 435727 (antisense eT*eG*dG*dA*dG*dT*d[5mC]*dA*dG*d[5mC]*dA*dT*e[5mC]*eG) [compound 435727]
  % Inhibition: 73%

## 435728 (antisense eA*e[5mC]*dA*d[5mC]*dA*dT*dG*dG*dA*dG*dT*d[5mC]*eA*eG) [compound 435728]
  % Inhibition: 16%

## 435729 (antisense eA*e[5mC]*dA*dG*d[5mC]*dA*d[5mC]*dA*d[5mC]*dA*dT*dG*eG*eA) [compound 435729]
  % Inhibition: 30%

## 435730 (antisense eT*eA*dA*dA*d[5mC]*dA*dA*d[5mC]*d[5mC]*dG*d[5mC]*d[5mC]*eT*eT) [compound 435730]
  % Inhibition: 49%

## 435731 (antisense eG*eT*dG*dA*dG*dA*dG*d[5mC]*dT*dA*dA*dA*e[5mC]*eA) [compound 435731]
  % Inhibition: 11%

## 435732 (antisense eG*eA*dA*dA*dA*dG*dT*dG*dA*dG*dA*dG*e[5mC]*eT) [compound 435732]
  % Inhibition: 0%

## 435733 (antisense e[5mC]*eT*dG*dA*dA*dT*dT*dG*dT*d[5mC]*dT*dG*eA*eA) [compound 435733]
  % Inhibition: 5%

## 435734 (antisense eA*eT*dG*d[5mC]*dT*dT*d[5mC]*dT*dG*dA*dA*dT*eT*eG) [compound 435734]
  % Inhibition: 16%

## 435735 (antisense eT*eG*dG*dT*dG*dA*dT*dG*d[5mC]*dT*dT*d[5mC]*eT*eG) [compound 435735]
  % Inhibition: 81%

## 435736 (antisense eA*eT*dG*d[5mC]*dA*dT*dG*dG*dT*dG*dA*dT*eG*e[5mC]) [compound 435736]
  % Inhibition: 50%

## 435737 (antisense eG*eT*dG*d[5mC]*dA*dG*d[5mC]*d[5mC]*d[5mC]*dG*dG*d[5mC]*eA*e[5mC]) [compound 435737]
  % Inhibition: 70%

## 435738 (antisense e[5mC]*eA*dG*dA*dG*dG*dA*dT*dG*dA*dG*d[5mC]*eA*e[5mC]) [compound 435738]
  % Inhibition: 16%

## 435739 (antisense e[5mC]*eA*dT*d[5mC]*dT*d[5mC]*dA*dG*dA*dG*dG*dA*eT*eG) [compound 435739]
  % Inhibition: 5%

## 435740 (antisense eT*e[5mC]*dA*dT*dT*dT*d[5mC]*dA*dG*dT*dG*dA*eT*eG) [compound 435740]
  % Inhibition: 0%

## 435741 (antisense eA*eG*dG*dG*dT*dT*d[5mC]*dA*dT*dT*dT*d[5mC]*eA*eG) [compound 435741]
  % Inhibition: 6%

## 435742 (antisense eA*eT*dG*dT*dG*dA*dG*dG*dG*dT*dT*d[5mC]*eA*eT) [compound 435742]
  % Inhibition: 11%

## 435743 (antisense eG*e[5mC]*d[5mC]*dT*d[5mC]*dA*dA*dA*d[5mC]*dA*dT*d[5mC]*eT*eA) [compound 435743]
  % Inhibition: 40%

## 435744 (antisense e[5mC]*eT*dA*d[5mC]*dA*dG*d[5mC]*d[5mC]*dT*d[5mC]*dA*dA*eA*e[5mC]) [compound 435744]
  % Inhibition: 19%

## 435745 (antisense eG*eG*dG*dA*dG*d[5mC]*dT*dA*d[5mC]*dA*dG*d[5mC]*e[5mC]*eT) [compound 435745]
  % Inhibition: 0%

## 435746 (antisense eA*eT*dT*dG*dA*d[5mC]*dA*dA*dG*dG*dG*d[5mC]*eT*eG) [compound 435746]
  % Inhibition: 32%

## 435747 (antisense eA*eT*dA*dT*d[5mC]*dA*dT*dT*dG*dA*d[5mC]*dA*eA*eG) [compound 435747]
  % Inhibition: 0%

## 435748 (antisense eT*e[5mC]*d[5mC]*d[5mC]*dA*dG*dG*dG*dT*d[5mC]*dT*d[5mC]*eT*eG) [compound 435748]
  % Inhibition: 18%

## 435749 (antisense e[5mC]*eA*dG*d[5mC]*d[5mC]*dA*dG*dG*dG*d[5mC]*d[5mC]*dT*eG*eG) [compound 435749]
  % Inhibition: 29%

## 435750 (antisense e[5mC]*eA*d[5mC]*dT*dG*d[5mC]*dA*dG*d[5mC]*d[5mC]*dA*dG*eG*eG) [compound 435750]
  % Inhibition: 14%

## 435751 (antisense e[5mC]*eT*dT*dG*d[5mC]*d[5mC]*dA*dG*dG*dT*d[5mC]*d[5mC]*eT*e[5mC]) [compound 435751]
  % Inhibition: 28%

## 435752 (antisense eT*eG*d[5mC]*dA*dG*d[5mC]*dT*dT*dG*d[5mC]*d[5mC]*dA*eG*eG) [compound 435752]
  % Inhibition: 12%

## 435753 (antisense eA*eA*dG*dA*dG*dT*dG*d[5mC]*dA*dG*d[5mC]*dT*eT*eG) [compound 435753]
  % Inhibition: 9%

## 435754 (antisense eT*e[5mC]*dA*dG*d[5mC]*dA*dA*dG*dA*dG*dT*dG*e[5mC]*eA) [compound 435754]
  % Inhibition: 16%

## 435755 (antisense eG*eG*dG*dA*d[5mC]*dT*d[5mC]*dA*dG*d[5mC]*dA*dA*eG*eA) [compound 435755]
  % Inhibition: 0%

## 435756 (antisense eT*eG*d[5mC]*d[5mC]*d[5mC]*dA*dG*dG*dA*d[5mC]*dG*dG*e[5mC]*e[5mC]) [compound 435756]
  % Inhibition: 20%

## 435757 (antisense eT*eG*d[5mC]*d[5mC]*dT*dG*dA*dG*dT*dG*d[5mC]*d[5mC]*e[5mC]*e[5mC]) [compound 435757]
  % Inhibition: 51%

## 435758 (antisense e[5mC]*e[5mC]*d[5mC]*dT*dG*dA*dG*d[5mC]*dT*dG*dG*dG*e[5mC]*eA) [compound 435758]
  % Inhibition: 4%

## 435759 (antisense eG*eA*dG*d[5mC]*d[5mC]*dA*d[5mC]*dA*dG*dA*dG*d[5mC]*e[5mC]*eT) [compound 435759]
  % Inhibition: 11%

## 435760 (antisense eT*e[5mC]*dT*dT*dG*dG*dG*dT*dG*dT*dG*dG*eA*eT) [compound 435760]
  % Inhibition: 17%

## 435761 (antisense e[5mC]*eA*dG*dA*dT*dG*dA*dA*dA*dA*d[5mC]*dT*eT*eG) [compound 435761]
  % Inhibition: 5%

## 435762 (antisense e[5mC]*eA*dG*dG*dT*dG*dT*dT*dA*dA*dG*dG*eT*eG) [compound 435762]
  % Inhibition: 0%

## 435763 (antisense eA*eG*dG*dA*dG*dA*dA*dA*dG*dG*dT*d[5mC]*eA*eG) [compound 435763]
  % Inhibition: 2%

## 435764 (antisense eT*eG*dA*dG*dA*dG*d[5mC]*dT*dG*d[5mC]*dA*d[5mC]*e[5mC]*eT) [compound 435764]
  % Inhibition: 8%

## 435765 (antisense e[5mC]*eA*dA*dA*dG*dT*dT*d[5mC]*dT*d[5mC]*dT*dG*e[5mC]*e[5mC]) [compound 435765]
  % Inhibition: 1%

## 435766 (antisense eG*e[5mC]*dA*d[5mC]*d[5mC]*dT*dG*d[5mC]*dA*dG*d[5mC]*d[5mC]*eA*eG) [compound 435766]
  % Inhibition: 51%

## 435767 (antisense e[5mC]*eA*d[5mC]*d[5mC]*dA*dA*dG*dT*dT*dT*dA*dT*eG*eG) [compound 435767]
  % Inhibition: 0%
